Assay results: ChEMBL document CHEMBL1201862, “PubChem BioAssay data set” (2004)
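All cell lines were grown in 96-well plates and treated with compound for 48 hours. GI50: concentration for 50% inhibition of growth.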 Calls of active or inactive are those of the source. Rule as the data show it: active = GI50 up to about 1.1 µM and inactive = higher.

Columns and labels:
Test in all cases: NCI anticancer screen, dose series, 48 h
[1] = tested on: 786-0
[2] = tested on: ACHN
[3] = tested on: U-251
[4] = tested on: NCI/ADR-RES
[5] = tested on: HCT-116
[6] = tested on: Hs-578T
[7] = tested on: NCI-H23
[8] = tested on: SK-MEL-2
[9] = tested on: RXF 393
[10] = tested on: SF-295
[11] = tested on: SK-MEL-5
[12] = tested on: MDA-MB-435
[13] = tested on: NCI-H460
[14] = tested on: CCRF-CEM
[15] = tested on: HOP-92
[16] = tested on: SNB-19
[17] = tested on: MDA-MB-231
[18] = tested on: DU-145
[19] = tested on: SF-268
[20] = tested on: EKVX
[21] = tested on: M14
[22] = tested on: CAKI-1
[23] = tested on: IGROV-1
[24] = tested on: SW-620
[25] = tested on: A549
[26] = tested on: TK-10
[27] = tested on: Malme-3M
[28] = tested on: LOX IMVI
[29] = tested on: HOP-62
[30] = tested on: OVCAR-8
[31] = tested on: OVCAR-5
[32] = tested on: SR
[33] = tested on: HT-29
[34] = tested on: MOLT-4
[35] = tested on: NCI-H522
[36] = tested on: SNB-75
[37] = tested on: OVCAR-4
[38] = tested on: SN12C
[39] = tested on: PC-3
[40] = tested on: KM12
[41] = tested on: K562
[42] = tested on: A498
[43] = tested on: UACC-62
[44] = tested on: BT-549
[45] = tested on: OVCAR-3
[46] = tested on: UO-31
[47] = tested on: T47D
[48] = tested on: HCT-15
[49] = tested on: SK-MEL-28
[50] = tested on: NCI-H226
[51] = tested on: SF-539
[52] = tested on: COLO 205
[53] = tested on: SK-OV-3
[54] = tested on: RPMI-8226
[55] = tested on: UACC-257
[56] = tested on: MCF7
[57] = tested on: HCC 2998
[58] = tested on: MDA-N
[59] = tested on: HL-60

For `CC(C)C1=CC23CCC4C(C)(C(=O)O)CCCC4(C)C2CC1C(C(=O)O)C3C(=O)O` (stereo not drawn), the GI50 [1] was > 100 µM (inactive), the GI50 [2] was > 100 µM (inactive) and the GI50 [3] was > 100 µM (inactive). The GI50 [4] was > 100 µM (inactive), the GI50 [5] was > 100 µM (inactive) and the GI50 [6] was > 100 µM (inactive). For the same molecule, the GI50 [7] was > 100 µM (inactive), the GI50 [8] was > 100 µM (inactive) and the GI50 [9] was > 100 µM (inactive). The GI50 [10] was > 100 µM (inactive), the GI50 [11] was > 100 µM (inactive) and the GI50 [12] was > 100 µM (inactive). The GI50 [13] was > 100 µM (inactive), the GI50 [14] was > 100 µM (inactive) and the GI50 [15] was > 100 µM (inactive). For the same molecule, the GI50 [16] was > 100 µM (inactive), the GI50 [17] was > 100 µM (inactive) and the GI50 [18] was > 100 µM (inactive). The GI50 [19] was > 100 µM (inactive), the GI50 [20] was > 100 µM (inactive) and the GI50 [21] was > 100 µM (inactive). For the same molecule, the GI50 [22] was > 100 µM (inactive), the GI50 [23] was > 100 µM (inactive) and the GI50 [24] was > 100 µM (inactive). The GI50 [25] was > 100 µM (inactive), the GI50 [26] was > 100 µM (inactive) and the GI50 [27] was > 100 µM (inactive). For the same molecule, the GI50 [28] was > 100 µM (inactive), the GI50 [29] was > 100 µM (inactive) and the GI50 [30] was > 100 µM (inactive). For the same molecule, the GI50 [31] was > 100 µM (inactive), the GI50 [32] was > 100 µM (inactive) and the GI50 [33] was > 100 µM (inactive). The GI50 [34] was > 100 µM (inactive), the GI50 [35] was > 100 µM (inactive) and the GI50 [36] was > 100 µM (inactive). For the same molecule, the GI50 [37] was > 100 µM (inactive), the GI50 [38] was > 100 µM (inactive) and the GI50 [39] was > 100 µM (inactive). For the same molecule, the GI50 [40] was > 100 µM (inactive), the GI50 [41] was > 100 µM (inactive) and the GI50 [42] was > 100 µM (inactive). The GI50 [43] was > 100 µM (inactive), the GI50 [44] was > 100 µM (inactive) and the GI50 [45] was > 100 µM (inactive). For the same molecule, the GI50 [46] was > 100 µM (inactive), the GI50 [47] was > 100 µM (inactive) and the GI50 [48] was greater than 100 µM. The GI50 [49] was > 100 µM (inactive) and the GI50 [50] was > 100 µM (inactive).

In the case of `CCc1n[nH]c(=O)n1/N=C/c1c(O)ccc2ccccc12`, the GI50 [1] is reported as > 100 µM (inactive), the GI50 [2] is reported as > 100 µM (inactive) and the GI50 [3] is reported as > 100 µM (inactive). For the same molecule, the GI50 [51] was > 100 µM (inactive), the GI50 [4] was > 100 µM (inactive) and the GI50 [5] was > 100 µM (inactive). The GI50 [6] was 2.06 µM (inactive), the GI50 [52] was > 100 µM (inactive) and the GI50 [7] was > 100 µM (inactive). The GI50 [8] was > 100 µM (inactive), the GI50 [9] was > 100 µM (inactive) and the GI50 [10] was > 100 µM (inactive). For the same molecule, the GI50 [11] was > 100 µM (inactive), the GI50 [12] was > 100 µM (inactive) and the GI50 [53] was > 100 µM (inactive). The GI50 [54] was > 100 µM (inactive), the GI50 [14] was > 100 µM (inactive) and the GI50 [15] was > 100 µM (inactive). The GI50 [55] was > 100 µM (inactive), the GI50 [16] was > 100 µM (inactive) and the GI50 [17] was > 100 µM (inactive). The GI50 [18] was > 100 µM (inactive), the GI50 [19] was > 100 µM (inactive) and the GI50 [20] was > 100 µM (inactive). For the same molecule, the GI50 [21] was > 100 µM (inactive), the GI50 [56] was > 100 µM (inactive) and the GI50 [23] was > 100 µM (inactive). The GI50 [24] was > 100 µM (inactive), the GI50 [25] was > 100 µM (inactive) and the GI50 [26] was > 100 µM (inactive). The GI50 [28] was > 100 µM (inactive), the GI50 [29] was > 100 µM (inactive) and the GI50 [30] was > 100 µM (inactive). For the same molecule, the GI50 [31] was > 100 µM (inactive), the GI50 [32] was > 100 µM (inactive) and the GI50 [34] was > 100 µM (inactive). For the same molecule, the GI50 [35] was > 100 µM (inactive), the GI50 [36] was > 100 µM (inactive) and the GI50 [37] was > 100 µM (inactive). For the same molecule, the GI50 [57] was > 100 µM (inactive), the GI50 [38] was > 100 µM (inactive) and the GI50 [39] was > 100 µM (inactive). For the same molecule, the GI50 [40] was > 100 µM (inactive), the GI50 [41] was > 100 µM (inactive) and the GI50 [58] was > 100 µM (inactive). The GI50 [43] was > 100 µM (inactive), the GI50 [44] was > 100 µM (inactive) and the GI50 [45] was > 100 µM (inactive). The GI50 [46] was > 100 µM (inactive), the GI50 [48] was greater than 100 µM and the GI50 [49] was > 100 µM (inactive).

For `CC(=N\c1ccncc1)/C(C)=N/c1ccncc1`, the GI50 [1] was 34.7 µM (inactive), the GI50 [2] was 14.5 µM (inactive) and the GI50 [3] was 24.5 µM (inactive). For the same molecule, the GI50 [51] was 18.7 µM (inactive), the GI50 [4] was 34.4 µM (inactive) and the GI50 [5] was 29.8 µM (inactive). For the same molecule, the GI50 [6] was 28.8 µM (inactive), the GI50 [52] was 17 µM (inactive) and the GI50 [7] was 16.5 µM (inactive). The GI50 [8] was 20.7 µM (inactive), the GI50 [9] was 27.4 µM (inactive) and the GI50 [10] was 73.5 µM (inactive). The GI50 [11] was 19.5 µM (inactive), the GI50 [12] was 29.2 µM (inactive) and the GI50 [53] was > 100 µM (inactive). The GI50 [54] was 21.1 µM (inactive), the GI50 [13] was 96.6 µM (inactive) and the GI50 [14] was 25.8 µM (inactive). The GI50 [15] was 22.3 µM (inactive), the GI50 [55] was 36.3 µM (inactive) and the GI50 [16] was 27.5 µM (inactive). The GI50 [17] was 21.8 µM (inactive), the GI50 [18] was 53.6 µM (inactive) and the GI50 [19] was 30.4 µM (inactive). The GI50 [20] was 20.7 µM (inactive), the GI50 [21] was 18.7 µM (inactive) and the GI50 [22] was 16.8 µM (inactive). For the same molecule, the GI50 [56] was 16.7 µM (inactive), the GI50 [23] was 17.3 µM (inactive) and the GI50 [24] was 30.8 µM (inactive). The GI50 [25] was > 100 µM (inactive), the GI50 [26] was 35.8 µM (inactive) and the GI50 [27] was 17.6 µM (inactive). For the same molecule, the GI50 [28] was 19.5 µM (inactive), the GI50 [59] was 26.7 µM (inactive) and the GI50 [29] was 18.5 µM (inactive). For the same molecule, the GI50 [30] was 35.2 µM (inactive), the GI50 [31] was 17 µM (inactive) and the GI50 [32] was 27.1 µM (inactive). For the same molecule, the GI50 [33] was 19 µM (inactive), the GI50 [34] was 24.4 µM (inactive) and the GI50 [35] was 16.3 µM (inactive). For the same molecule, the GI50 [36] was > 100 µM (inactive), the GI50 [37] was 11.4 µM (inactive) and the GI50 [57] was 19 µM (inactive). For the same molecule, the GI50 [38] was 16.2 µM (inactive), the GI50 [39] was 19.3 µM (inactive) and the GI50 [40] was 38.3 µM (inactive). For the same molecule, the GI50 [41] was 31 µM (inactive), the GI50 [42] was 34.4 µM (inactive) and the GI50 [44] was 23.3 µM (inactive). The GI50 [45] was 15.4 µM (inactive), the GI50 [46] was 17 µM (inactive) and the GI50 [47] was 26.2 µM (inactive). The GI50 [48] was 14.4 µM, the GI50 [49] was 29.1 µM (inactive) and the GI50 [50] was 34 µM (inactive).
